Target: T1, CAMK2B (CaMKII beta) (Homo sapiens, UniProt Q13554)
T1 construct: purchased Thermo Fisher Scientific (Life Technologies) SelectScreen
Test: SelectScreen Z'LYTE
Assay type: biochemical
Outline: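 Percent values come from Thermo SelectScreen profiling of NU5455, combining activity and binding assays. CSF1R was run in Z'LYTE format at Km app ATP, and CAMK1 in Adapta format with ATP listed at 10.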

T1 sequence (Q13554 whole entry): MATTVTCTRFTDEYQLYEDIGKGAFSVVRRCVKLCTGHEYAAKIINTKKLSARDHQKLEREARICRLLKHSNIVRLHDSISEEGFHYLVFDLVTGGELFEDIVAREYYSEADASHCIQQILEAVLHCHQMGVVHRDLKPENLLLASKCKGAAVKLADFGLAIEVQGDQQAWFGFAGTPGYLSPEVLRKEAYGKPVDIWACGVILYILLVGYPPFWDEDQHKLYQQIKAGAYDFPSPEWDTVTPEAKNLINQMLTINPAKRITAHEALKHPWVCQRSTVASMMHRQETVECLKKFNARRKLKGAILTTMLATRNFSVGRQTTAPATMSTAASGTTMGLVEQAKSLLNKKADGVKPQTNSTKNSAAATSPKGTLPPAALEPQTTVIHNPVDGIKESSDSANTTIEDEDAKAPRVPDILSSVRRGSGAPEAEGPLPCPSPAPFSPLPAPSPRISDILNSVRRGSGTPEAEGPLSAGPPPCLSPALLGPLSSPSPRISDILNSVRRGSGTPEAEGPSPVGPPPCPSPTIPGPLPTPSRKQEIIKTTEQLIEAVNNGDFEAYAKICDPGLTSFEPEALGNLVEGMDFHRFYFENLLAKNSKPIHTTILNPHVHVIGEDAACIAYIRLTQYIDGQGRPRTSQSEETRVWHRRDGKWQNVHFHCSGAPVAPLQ

Structure (SMILES): CN(C(=O)CN1CCOCC1)c1ccc2sc3c(-c4cccc5c(=O)cc(N6CC7CCC(C6)O7)oc45)cccc3c2c1 [NU5455]
- inhibition at 1 µM: 0.7%
